In patent US8877731B2, “Azido nucleosides and nucleotide analogs” (Alios Biopharma, Inc., priority 2010, dated 2014):
Like-named read-outs stand apart in the source and are kept apart here.

Assays:
Assay type in all cases: cell-based
[1] = tested on: RSV A2; experiment: RSV RT-PCR based assay
Procedure: RT-PCR based assays were performed in HEp-2 cells (ATCC: CCL-23) at a concentration of 20000 cell/well were plated in 96 well plates and incubated overnight. Each of the test compounds were ⅓ serially diluted and dosed to HEp-2 cells in duplicates. The highest final concentration for each compound was 100 uM. After 24 hour compound pre-incubation, RSV A2 (ATCC: VR-1540) at MOI of 0.1 was added. Two wells per compound were set aside as uninfected, untreated cell controls (CC), and four wells per test compound received virus only as a control for virus replication (VC). The assay was stopped 4 days after virus infection and conditioned media was removed for viral RNA isolation. The quantities of the RSV virus were measured by real-time PCR using a set of RSV specific primers and probe. The data was analyzed with Prism software with EC50 defined as drug concentration that reduced the viral load 50% from the viral control (VC).
(§1) Compounds of Formula (I) and Formula (II) are active in the assay as noted in Tables 2 and 3, where ‘A’ indicates an EC50<1 μM, ‘B’ indicates an EC50 of >1 μM and <10 μM, ‘C’ indicates an EC50>10 μM and <100 μM, and ‘D’ indicates an EC50>100 μM.

[2] = tested on: Influenza A/WSN/33 virus; experiment: Influenza antiviral assay (real-time PCR); conditions: A549 cells, 24 hour pre-incubation, 72 hours, read-out: Percent Inhibition
[3] = tested on: RSV Long strain; experiment: RSV CPE reduction assay
Procedure: CPE reduction assays were performed as described by Sidwell and Huffman et al., Appl Microbiol. (1971) 22(5):797-801 with slight modifications. HEp-2 cells (ATCC) at a concentration of 6000 cell/well were infected with RSV Long strain (ATCC) at a multiplicity of infection (m.o.i.) of 0.01, and each of the test compounds were provided to duplicate wells at final concentrations starting from 100 μM using ⅓ stepwise dilutions. For each compound, two wells were set aside as uninfected, untreated cell controls (CC), and two wells per test compound received virus only as a control for virus replication (VC). […] At the end of the incubation, 20 μl of cell counting kit-8 reagent (CCK-8, Dojindo Molecular Technologies, Inc.) were added to each well. After 4 hour incubation, the absorbance was measured in each well according to manufacturer's instruction, and the 50% effective concentration (EC50) was calculated by using regression analysis, based on the mean O.D. at each concentration of compound.
as §1

[4] = human respiratory syncytial virus, RT-PCR assay, HEp-2 cells, 24 hour compound pre-incubation, RSV A2 at MOI 0.1, 4 days after infection, viral load, read-out: EC50
[5] = human respiratory syncytial virus, 144 h, CPE assay, HEp-2 cells infected with RSV Long strain, m.o.i. 0.01, 6 days, CCK-8 readout, read-out: EC50
[6] = human respiratory syncytial virus, HEp-2
[7] = human respiratory syncytial virus, HEp-2, 144 h

Structure (SMILES) | EC50 [1, 4] [µM] | inhibition at 30 µM [2] [%] | EC50 [3, 5] [µM] | also measured
[N-]=[N+]=N[C@]1(CO)O[C@@H](n2ccc(N)nc2=O)[C@H](F)[C@@H]1O [Compound 2, 4′-azido-2′-deoxy-2′-fluorocytidine] | < 1 | 99.8 | < 1 | –
[N-]=[N+]=N[C@]1(CO)O[C@@H](n2cnc3c(=O)[nH]c(N)nc32)[C@H](O)[C@@H]1O [Compound 10, 4′-azidoguanosine] | < 1 | 83.3 | < 1 | –
[N-]=[N+]=N[C@]1(CO)O[C@@H](n2cnc3c(=O)[nH]c(N)nc32)[C@H](F)[C@@H]1O [Compound 27, 4′-azido-2′-deoxy-2′-fluoroguanosine] | < 1 | 91 | < 1 | –
[N-]=[N+]=N[C@]1(CO)O[C@@H](n2cnc3c(N)ncnc32)[C@H](F)[C@@H]1O [Compound 28, 4′-azido-2′-deoxy-2′-fluoroadenosine] | > 100 | 94.6 | > 100 | –
[N-]=[N+]=N[C@]1(CO)O[C@@H](n2cnc3c(=O)[nH]c(N)nc32)C(F)(F)[C@@H]1O [Compound 30, 4′-azido-2′-deoxy-2′,2′-difluoroguanosine] | > 100 | 99.9 | – | –
CC(C)OC(=O)[C@H](C)NP(=O)(OC[C@@]1(N=[N+]=[N-])O[C@@H](n2ccc(=O)[nH]c2=O)[C@@H](C)[C@@H]1O)Oc1ccccc1 (stereo partly drawn) [Compound 36, 4′-azido-2′-deoxy-2′-methylarabinouridine 5′-(O-phenyl-N—(S)-1-(isopropoxycarbonyl)ethyl)phosphoramidate] | > 100 | – | > 100 | –
CC(C)OC(=O)[C@H](C)NP(=O)(OC[C@@]1(N=[N+]=[N-])O[C@@H](n2cnc3c(N)ncnc32)[C@H](F)[C@@H]1O)Oc1ccccc1 (stereo partly drawn) [Compound 37, 4′-azido-2′-deoxy-2′-fluoroadenosine 5′-(O-phenyl-N—(S)-1-(isopropoxycarbonyl)ethyl)phosphoramidate] | 1 to 10 | – | 1 to 10 | –
C[C@]1(F)[C@H](n2ccc(N)nc2=O)O[C@@](CO)(N=[N+]=[N-])[C@H]1O [Compound 38, 4′-azido-2′-deoxy-2′-α-fluoro-2′-β-methylcytidine] | > 100 | – | > 100 | –
CC(C)OC(=O)[C@H](C)NP(=O)(N[C@@H](C)C(=O)OC(C)C)OC[C@@]1(N=[N+]=[N-])O[C@@H](n2ccc(=O)[nH]c2=O)C(F)(F)[C@@H]1O [Compound 39, 4′-azido-2′-deoxy-2′-difluorouridine 5′-(N,N-bis((S)-isopropoxycarbonyleth-1-yl))phosphordiamidate] | > 100 | – | > 100 | –
CC(C)OC(=O)[C@H](C)NP(=O)(N[C@@H](C)C(=O)OC(C)C)OC[C@@]1(N=[N+]=[N-])O[C@@H](n2ccc(=O)[nH]c2=O)[C@H](F)[C@@H]1O [Compound 40] | > 100 | – | > 100 | –
COP1(=S)OC[C@@]2(N=[N+]=[N-])O[C@@H](n3ccc(=O)[nH]c3=O)[C@H](F)[C@@H]2O1 (stereo partly drawn) [Compound 41, 4′-azido-2′-deoxy-2′-fluorouridine 3′,5′-cyclic thiophosphoric acid methyl ester] | – | – | – | EC50 [1, 6]: > 100 µM; EC50 [3, 7]: > 100 µM
[N-]=[N+]=N[C@]1(CO)O[C@@H](n2cnc(C(N)=O)n2)[C@H](O)[C@@H]1O [Compound 43, 4′-azidoribavirin] | 10 to 100 | – | 10 to 100 | –
CC(C)OC(=O)[C@H](C)NP(=O)(N[C@@H](C)C(=O)OC(C)C)OC[C@@]1(N=[N+]=[N-])O[C@@H](n2ccc(=O)[nH]c2=O)[C@H](O)[C@@H]1O [Compound 44, 4′-azidouridine 5′-(N,N′-bis((S)-1-(isopropoxycarbonyl)ethyl))phosphorodiamidate] | > 100 | – | > 100 | –
CC(C)OP1(=S)OC[C@@]2(N=[N+]=[N-])O[C@@H](n3ccc(=O)[nH]c3=O)[C@H](F)[C@@H]2O1 (stereo partly drawn) [Compound 45, 4′-azido-2′-deoxy-2′-fluorouridine 3′,5′-cyclic thiophosphoric acid isopropyl ester] | – | – | – | EC50 [1, 6]: > 100 µM; EC50 [3, 7]: > 100 µM
CC(C)OP1(=S)OC[C@@]2(N=[N+]=[N-])O[C@@H](n3ccc(N)nc3=O)[C@H](F)[C@@H]2O1 (stereo partly drawn) [Compound 46, 4′-azido-2′-deoxy-2′-fluorocytidine 3′,5′-cyclic thiophosphoric acid isopropyl ester] | – | – | – | EC50 [1, 6]: > 100 µM; EC50 [3, 7]: > 100 µM
[N-]=[N+]=N[C@]1(CO)O[C@@H](n2cnc3c(=O)[nH]c(N)nc32)[C@@H](O)[C@@H]1O [Compound 47, 4′-azidoarabinoguanosine] | > 100 | – | > 100 | –
COc1nc(N)nc2c1ncn2[C@@H]1O[C@@](CO)(N=[N+]=[N-])[C@@H](O)[C@H]1F [Compound 48, 2-amino-9-(4-aido-2-deoxy-2-fluoro-1-ribofuranosyl)-6-methoxypurine] | < 1 | – | 1 to 10 | –
COc1nc(N)nc2c1ncn2C1O[C@@](CO)(N=[N+]=[N-])[C@@H](O)[C@H]1F (stereo partly drawn) [Compound 49, 2-amino-9-(4-aido-2-deoxy-2-fluoro-1-ribofuranosyl)-6-methoxypurine] | – | – | – | EC50 ([1]; RT-PCR assay, HEp-2 cells, 24 hour compound pre-incubation, RSV A2 at MOI 0.1, 4 days after infection, viral load, read-out: EC50): > 100 µM; EC50 ([3]; CPE assay, HEp-2 cells infected with RSV Long strain, m.o.i. 0.01, 6 days, CCK-8 readout, read-out: EC50): > 100 µM
C[C@@]1(n2ccc(N)nc2=O)O[C@@](CO)(N=[N+]=[N-])[C@@H](O)[C@H]1O [Compound 50, 4′-azido-1′-methylcytidine] | > 100 | 90.9 | > 100 | –
C[C@]1(F)[C@H](n2ccc(=O)[nH]c2=O)O[C@@](CO)(N=[N+]=[N-])[C@H]1O [Compound 51, 4′-azido-2′-deoxy-2′-α-fluoro-2′-β-methyluridine] | > 100 | – | > 100 | –
